In ChEMBL document CHEMBL1126429, “MDL 74147, a novel selective and soluble inhibitor of human renin. Synthesis, structure-activity relationship, species and protease selectivities” (Bioorg Med Chem Lett, 1992) one finds IC50 and Ki data, which are given here for six compounds.

One test addresses T1, Renin (Homo sapiens, UniProt P00797).
T1 sequence (P00797 whole entry): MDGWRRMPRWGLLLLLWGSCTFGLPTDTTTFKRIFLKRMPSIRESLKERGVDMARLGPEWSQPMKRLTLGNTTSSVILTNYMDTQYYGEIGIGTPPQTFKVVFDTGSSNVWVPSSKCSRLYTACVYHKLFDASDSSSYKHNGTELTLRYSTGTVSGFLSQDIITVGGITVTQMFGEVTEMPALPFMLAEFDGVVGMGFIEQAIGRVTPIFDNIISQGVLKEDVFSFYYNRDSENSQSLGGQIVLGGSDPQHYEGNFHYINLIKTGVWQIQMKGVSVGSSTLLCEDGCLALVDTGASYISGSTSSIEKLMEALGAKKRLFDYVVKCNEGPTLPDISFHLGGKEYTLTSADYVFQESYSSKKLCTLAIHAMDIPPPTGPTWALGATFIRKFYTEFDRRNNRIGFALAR
The test can be described thus: Concentration required to inhibit human plasma renin by 50% using radio-immunoassay was determined. In kind it is cell-free.

Another test has as its target Pepsin A (Sus scrofa, UniProt P00791). The experiment in a line: Concentration required to inhibit the enzyme pepsin.
The next test deals with Chymotrypsinogen A (Bos taurus, UniProt P00766). The experiment in a line: Concentration required to inhibit the enzyme chymotrypsin.

Each structure is given as a SMILES string. Where a SMILES comes first, the peptide text is derived from it. [ ]: non-standard residue; d: D form. The star is where a group is joined. Cha = N[C@@H](CC1CCCCC1)C(=O)O; Boc = CC(C)(C)OC(=O)*; CF3 = FC(F)(F)*

Sequence of Pepsin A (P00791 whole entry): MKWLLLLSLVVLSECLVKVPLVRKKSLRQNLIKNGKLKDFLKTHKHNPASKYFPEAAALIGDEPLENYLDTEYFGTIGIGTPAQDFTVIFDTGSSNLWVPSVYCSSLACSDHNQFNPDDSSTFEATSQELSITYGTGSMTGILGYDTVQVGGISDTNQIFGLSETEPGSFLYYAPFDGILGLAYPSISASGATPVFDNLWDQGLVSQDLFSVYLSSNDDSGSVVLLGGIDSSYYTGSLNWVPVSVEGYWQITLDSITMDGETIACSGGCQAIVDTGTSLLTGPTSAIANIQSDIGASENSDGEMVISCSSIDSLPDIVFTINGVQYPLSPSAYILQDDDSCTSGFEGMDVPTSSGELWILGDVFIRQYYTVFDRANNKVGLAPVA

Compound `CCC[C@H](NC(=O)[C@H](Cc1ccc(OC)cc1)NC(=O)CC(C)C)C(=O)N[C@@H](CC1CCCCC1)C(O)C(F)(F)CN` (some centres not stated) had an IC50 against Renin greater than 1 µM.

In turn, `COc1ccc(C[C@H](NC(=O)CC(C)C)C(=O)CCC(=O)N[C@@H](CC2CCCCC2)C(=O)C(F)(F)CN)cc1` displayed an IC50 on Renin of 25 µM.

Turning to `COc1ccc(C[C@H](NC(=O)CC(C)C)C(=O)N[C@H](C)C(=O)N[C@@H](CC2CCCCC2)C(=O)C(F)(F)CN)cc1`, inhibition against Renin was half-maximal at 27 µM (IC50).

As to `CCC[C@H](NC(=O)[C@H](Cc1ccc(OC)cc1)NC(=O)CC(C)C)C(=O)N[C@@H](CC1CCCCC1)C(=O)C(F)(F)CN`, the values for the Ki on Pepsin A and at Chymotrypsinogen A were 40 µM and 2.5 µM, respectively.

`CCC[C@@H](C(=O)N[C@@H](CC1CCCCC1)C(=O)C(F)(F)CN)N(C)C(=O)[C@H](Cc1ccc(OC)cc1)NC(=O)CC(C)C` returned an IC50 at Renin of 40 µM.

`CC(C)C[C@H](NC(=O)[C@H](Cc1ccccc1)NC(=O)OC(C)(C)C)C(=O)N[C@@H](CC1CCCCC1)C(=O)C(F)(F)F` (Boc-Phe-Leu-[Cha]-CF3): the IC50 on Renin came to 0.25 µM.
